Experimental data published in patent publication US20240382629A1, “HETEROBIVALENT AND HOMOBIVALENT AGENTS TARGETING FIBROBLAST ACTIVATION PROTEIN ALPHA AND/OR PROSTATE-SPECIFIC MEMBRANE ANTIGEN” (The Johns Hopkins University, priority 2021, published 2024).

Key:
PSMA+ 786-O tumor = assay: PET imaging and biodistribution in PSMA+ 786-O ccRCC tumor-bearing mice; format: in vivo, mouse; conditions: 2 h
Description: Experiment 4 consisted of preliminary imaging (7.4 MBq) (n=2) and biodistribution studies (0.74 MBq) at 2 h in male NSG healthy mice (n=3) and tumor-bearing human clear cell renal cell carcinoma (ccRCC) PSMA+786-O tumors (n=4).

[1] = Stability of radiotracer in PBS and bovine serum albumin; format: physicochemical; conditions: in PBS and bovine serum albumin at 37° C.
Description: Click chemistry was used to conjugate the FAP and PSMA targeting moieties with the selected linker. Radiolabeling employed a rapid microwave-assisted method to generate ^64Cu-FP-L1 in nearly quantitative yield. High-performance liquid chromatography (HPLC) was used to remove unreacted ligand to ensure high specific radioactivity (>19 MBq/nmol). ^64Cu-FP-L1 was stable for at least 4 h in PBS and bovine serum albumin at 37° C.

U87 tumor = assay: PET imaging and tissue biodistribution in U87 tumor-bearing mice; format: in vivo, mouse; conditions: for Biodistribution: Bladder / Biodistribution: Blood / Biodistribution: Bone / Biodistribution: Fat / Biodistribution: Heart / Biodistribution: Kidney / Biodistribution: Lac.gl / Biodistribution: Liver / Biodistribution: Lung / Biodistribution: Muscle / Biodistribution: Pancreas / Biodistribution: Sal.gl / Biodistribution: Sm.in / Biodistribution: Spleen / Biodistribution: Stomach / Biodistribution: Tumor: in %ID/g
Description: Cell uptake assays, flow cytometry, and IHC were performed as described previously. Banerjee et al., 2019; Nimmagadda et al., 2018. PET imaging and biodistribution Sequential PET imaging and biodistribution studies were conducted to quantify and validate PET imaging data. Briefly, tumor-bearing mice were administrated approximately 7.4 MBq of radiotracer in 150 μL saline via tail-vein injection. They were randomized into the indicated groups of 3-4 mice before radiotracer injection.
In Experiment 1, bilateral xenografts of U87 (right flank) and PSMA+ PC3 PIP (left flank) tumors were established in male NSG mice (n=3), which underwent imaging followed by biodistribution over 24 h. […] A biodistribution study was further conducted with U87 tumors at 2 h post-injection (n=3) to compare the tissue distribution properties of ^64Cu-FP-L1 and ^64Cu-FAPI-04.

[2] = 1 h, NSG mice, U87 tumor, n=3-4
[3] = 1 h block, 10 nmol FAPI-04, NSG mice, U87 tumor
[4] = 2 h (n = 4), NSG mice, U87 tumor

With N#C[C@@H]1CCCN1C(=O)CNC(=O)c1ccnc2ccc(OCCCNC(=O)CCc3cn(CCOCCOCCOCCC(=O)N[C@@H](CCCCNC(=O)CN4CCN(CC(=O)O)CCN(CC(=O)O)CC4)C(=O)NCCCCC(=O)N(CCCC[C@H](NC(=O)N[C@@H](CCC(=O)O)C(=O)O)C(=O)O)Cc4ccc(Br)cc4)nn3)cc12 [^64Cu-FP-L1, metal not drawn] the “Tumor uptake, PSMA+ 786-O” value (PSMA+ 786-O tumor) was 11.97±1.63 % ID/g, the “Renal uptake in PSMA+ 786-O xenograft-bearing NSG mice vs healthy NSG mice” value (PSMA+ 786-O tumor; head-to-head biodistribution) was “high renal uptake compared to healthy mice” and the “Stability (stable for at least)” value [1] was “at least 4 h”. For the same molecule, the “Biodistribution: Bladder” value (U87 tumor; [2]) was 2.41 ± 0.62, the “Biodistribution: Blood” value (U87 tumor; [2]) was 10.12 ± 3.23 and the “Biodistribution: Bone” value (U87 tumor; [2]) was 4.17 ± 0.13. The “Biodistribution: Fat” value (U87 tumor; [2]) was 0.77 ± 0.12, the “Biodistribution: Heart” value (U87 tumor; [2]) was 3.42 ± 2.73 and the “Biodistribution: Kidney” value (U87 tumor; [2]) was 21.58 ± 5.33. The “Biodistribution: Lac.gl” value (U87 tumor; [2]) was 5.47 ± 4.13, the “Biodistribution: Liver” value (U87 tumor; [2]) was 5.35 ± 0.43 and the “Biodistribution: Lung” value (U87 tumor; [2]) was 5.32 ± 1.42. The “Biodistribution: Muscle” value (U87 tumor; [2]) was 2.29 ± 0.08, the “Biodistribution: Pancreas” value (U87 tumor; [2]) was 7.17 ± 1.19 and the “Biodistribution: Sal.gl” value (U87 tumor; [2]) was 12.01 ± 3.62. For the same molecule, the “Biodistribution: Sm.in” value (U87 tumor; [2]) was 4.22 ± 1.78, the “Biodistribution: Spleen” value (U87 tumor; [2]) was 2.20 ± 0.54 and the “Biodistribution: Stomach” value (U87 tumor; [2]) was 2.51 ± 0.25. The “Biodistribution: Tumor” value (U87 tumor; [2]) was 12.04 ± 2.39, the “Biodistribution: Bladder” value (U87 tumor; [3]) was 1.22 ± 0.15 and the “Biodistribution: Blood” value (U87 tumor; [3]) was 1.38 ± 0.19. The “Biodistribution: Bone” value (U87 tumor; [3]) was 0.72 ± 0.08, the “Biodistribution: Fat” value (U87 tumor; [3]) was 0.31 ± 0.04 and the “Biodistribution: Heart” value (U87 tumor; [3]) was 0.94 ± 0.35. The “Biodistribution: Kidney” value (U87 tumor; [3]) was 6.09 ± 0.18, the “Biodistribution: Lac.gl” value (U87 tumor; [3]) was 1.48 ± 0.45 and the “Biodistribution: Liver” value (U87 tumor; [3]) was 6.19 ± 1.06. For the same molecule, the “Biodistribution: Lung” value (U87 tumor; [3]) was 2.63 ± 0.27, the “Biodistribution: Muscle” value (U87 tumor; [3]) was 0.38 ± 0.05 and the “Biodistribution: Pancreas” value (U87 tumor; [3]) was 1.01 ± 0.10. For the same molecule, the “Biodistribution: Sal.gl” value (U87 tumor; [3]) was 2.00 ± 0.19, the “Biodistribution: Sm.in” value (U87 tumor; [3]) was 3.00 ± 0.22 and the “Biodistribution: Spleen” value (U87 tumor; [3]) was 1.55 ± 0.07. The “Biodistribution: Stomach” value (U87 tumor; [3]) was 1.96 ± 0.07, the “Biodistribution: Tumor” value (U87 tumor; [3]) was 4.37 ± 0.70 and the “Biodistribution: Bladder” value (U87 tumor; [4]) was 2.68 ± 0.83. For the same molecule, the “Biodistribution: Blood” value (U87 tumor; [4]) was 9.93 ± 2.13, the “Biodistribution: Bone” value (U87 tumor; [4]) was 5.36 ± 1.89 and the “Biodistribution: Fat” value (U87 tumor; [4]) was 0.66 ± 0.52. The “Biodistribution: Heart” value (U87 tumor; [4]) was 4.62 ± 0.68, the “Biodistribution: Kidney” value (U87 tumor; [4]) was 26.85 ± 7.39 and the “Biodistribution: Lac.gl” value (U87 tumor; [4]) was 8.11 ± 1.24. For the same molecule, the “Biodistribution: Liver” value (U87 tumor; [4]) was 6.15 ± 0.65, the “Biodistribution: Lung” value (U87 tumor; [4]) was 5.65 ± 1.54 and the “Biodistribution: Muscle” value (U87 tumor; [4]) was 2.10 ± 0.13. The “Biodistribution: Pancreas” value (U87 tumor; [4]) was 5.98 ± 0.58, the “Biodistribution: Sal.gl” value (U87 tumor; [4]) was 8.96 ± 1.47 and the “Biodistribution: Sm.in” value (U87 tumor; [4]) was 6.12 ± 1.91. For the same molecule, the “Biodistribution: Spleen” value (U87 tumor; [4]) was 2.68 ± 0.62, the “Biodistribution: Stomach” value (U87 tumor; [4]) was 2.19 ± 0.33 and the “Biodistribution: Tumor” value (U87 tumor; [4]) was 14.65 ± 3.68. For the same molecule, the “Tumor uptake, FAP+ U87 tumor” value (U87 tumor; 2 h, bilateral U87 / PSMA+ PC3 PIP model) was 16.96±5.01 % ID/g, the “Uptake in U87 tumor with FAP blockade” value (U87 tumor; 2 h, blocking with FAPI-04 (500 nmol/kg)) was 2.47±0.82 % ID/g and the “Biodistribution: Bladder” value (U87 tumor; 2 h Nude mice (n = 4)) was 1.80 ± 0.24. The “Biodistribution: Blood” value (U87 tumor; 2 h Nude mice (n = 4)) was 6.50 ± 1.05, the “Biodistribution: Bone” value (U87 tumor; 2 h Nude mice (n = 4)) was 3.51 ± 0.45 and the “Biodistribution: Fat” value (U87 tumor; 2 h Nude mice (n = 4)) was 0.86 ± 0.03. The “Biodistribution: Heart” value (U87 tumor; 2 h Nude mice (n = 4)) was 2.77 ± 0.25, the “Biodistribution: Kidney” value (U87 tumor; 2 h Nude mice (n = 4)) was 11.66 ± 0.95 and the “Biodistribution: Lac.gl” value (U87 tumor; 2 h Nude mice (n = 4)) was 5.44 ± 0.78. The “Biodistribution: Liver” value (U87 tumor; 2 h Nude mice (n = 4)) was 4.16 ± 0.66, the “Biodistribution: Lung” value (U87 tumor; 2 h Nude mice (n = 4)) was 4.37 ± 0.48 and the “Biodistribution: Muscle” value (U87 tumor; 2 h Nude mice (n = 4)) was 1.80 ± 0.26. The “Biodistribution: Pancreas” value (U87 tumor; 2 h Nude mice (n = 4)) was 5.04 ± 0.36, the “Biodistribution: Sal.gl” value (U87 tumor; 2 h Nude mice (n = 4)) was 5.60 ± 0.94 and the “Biodistribution: Sm.in” value (U87 tumor; 2 h Nude mice (n = 4)) was 4.33 ± 1.13. For the same molecule, the “Biodistribution: Spleen” value (U87 tumor; 2 h Nude mice (n = 4)) was 1.88 ± 0.35, the “Biodistribution: Stomach” value (U87 tumor; 2 h Nude mice (n = 4)) was 2.02 ± 0.22 and the “Biodistribution: Tumor” value (U87 tumor; 2 h Nude mice (n = 4)) was 7.25 ± 1.24. The “Biodistribution: Bladder” value (U87 tumor; 4 h, NSG mice, U87 tumor) was 1.72 ± 0.33, the “Biodistribution: Blood” value (U87 tumor; 4 h, NSG mice, U87 tumor) was 3.91 ± 0.73 and the “Biodistribution: Bone” value (U87 tumor; 4 h, NSG mice, U87 tumor) was 2.39 ± 0.37.
